In paper PMC3470935 (Journal of medicinal chemistry, 2012):
Substitutions are numbered along the chain they refer to.

Legend:
AKR1C3 = target: T1, AKR1C3 (Homo sapiens, UniProt P42330); experiment: Spectrophotometric inhibition assay, 1-acenaphthenol oxidation with NAD+; assay type: biochemical; details: pH 9.0, screening at 400 μM
T1 sequence (P42330 1-323): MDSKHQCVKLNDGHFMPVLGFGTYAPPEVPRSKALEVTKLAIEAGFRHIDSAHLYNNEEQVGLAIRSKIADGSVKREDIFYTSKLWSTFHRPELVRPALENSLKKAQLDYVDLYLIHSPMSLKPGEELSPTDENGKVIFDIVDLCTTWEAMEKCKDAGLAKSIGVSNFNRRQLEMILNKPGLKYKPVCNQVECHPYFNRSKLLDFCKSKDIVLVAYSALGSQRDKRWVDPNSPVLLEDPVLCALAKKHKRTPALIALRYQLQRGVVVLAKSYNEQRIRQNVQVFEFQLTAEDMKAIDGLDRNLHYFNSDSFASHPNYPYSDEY

AKR1C1 = target: T2, AKR1C1 (Homo sapiens, UniProt Q04828); experiment: as above; assay type: biochemical; details: pH 9.0, screening at 400 μM
T2 sequence (Q04828 1-323): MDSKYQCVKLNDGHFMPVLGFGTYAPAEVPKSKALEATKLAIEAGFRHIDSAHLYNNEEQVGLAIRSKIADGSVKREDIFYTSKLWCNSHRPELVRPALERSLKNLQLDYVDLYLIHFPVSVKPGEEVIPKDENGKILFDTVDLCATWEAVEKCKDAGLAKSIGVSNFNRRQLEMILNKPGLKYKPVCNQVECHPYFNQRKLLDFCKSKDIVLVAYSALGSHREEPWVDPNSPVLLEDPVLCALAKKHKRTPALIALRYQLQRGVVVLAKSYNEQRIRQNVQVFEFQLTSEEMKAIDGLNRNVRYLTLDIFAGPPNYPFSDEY

AKR1C2 = target: T3, AKR1C2 (Homo sapiens, UniProt P52895); experiment: as above; assay type: biochemical; details: pH 9.0, screening at 400 μM
T3 sequence (P52895 1-323): T2 sequence (Q04828 1-323) with T38V, R47H, L54V, C87S, V151M, R170H, Q172L

AKR1C1-3 = experiment: Isoform profile across the AKR1C enzymes; assay type: biochemical, human; details: 1-acenaphthenol oxidation, NAD+, pH 9.0

SMILES	inhibition of AKR1C3 (in words) (AKR1C3)	inhibition of AKR1C1 (in words) (AKR1C1)	inhibition of AKR1C2 (in words) (AKR1C2)	inhibition profile / isoform selectivity on AKR1C enzymes (in words) (AKR1C1-3)
O=C(O)c1cc(NC(=O)c2ccccc2F)ccc1O [Compound 1, 5-(2-fluorobenzamido)salicylic acid]	moderate			
Cc1cc(C(=O)Nc2ccc(O)c(C(=O)O)c2)oc1C [Compound 3, 5-(4,5-dimethylfuran-2-carboxamido)-salicylic acid]		no observable inhibition	very low inhibition	selective AKR1C3 inhibitor
Cc1oc(C(N)=O)cc1COc1ccccc1C(N)=O [Compound 4, 4-((2-carbamoylphenoxy)methyl)-5-methylfuran-2-carboxamide]	moderate inhibitor		moderate inhibitor	partially selective towards AKR1C1
NC(=O)c1ccccc1/N=C/c1cccc(O)c1 [Compound 5, 2-(3-hydroxybenzylideneamino)benzamide]				selective AKR1C3 inhibitor
NC(=O)c1ccccc1NC(=O)c1ccncc1 [Compound 7]				low inhibitory effect
Cc1cccc(C(=O)Nc2ccccc2C(N)=O)c1 [Compound 8]				low inhibitory effect
Cc1ccc(NC(=O)c2cccnc2)c(C(=O)O)c1 [Compound 10]	weak inhibitor	weak inhibitor		
O=C(O)c1ccc(CNCc2ccccn2)cc1 [Compound 18]	moderate			
CC(=O)Nc1ccc(C(C#N)c2ccccc2)cc1 (stereo not shown) [Compound 24, N-(4-(cyano(phenyl)methyl)phenyl)acetamide]			moderate inhibitor	
O=C(CSc1ncnc2[nH]cnc12)Nc1ccccn1 [Compound 25, 2-((9H-purin-6-yl)thio)-N-(pyridin-2-yl)acetamide]				selective AKR1C1 inhibitor
O=C(NCc1cc(=O)[nH]cn1)c1cc2ccccn2n1 [Compound 27, N-((6-oxo-1,6-dihydropyrimidin-4-yl)methyl)pyrazolo[1,5-a]pyridine-2-carboxamide]				selective AKR1C3 inhibitors
